# Read-outs that look alike come from different tables or passages of the source.
# Experiments:
# [1] = target: E. coli UDP-N-acetylglucosamine enolpyruvoyl transferase, MurA (Escherichia coli, UniProt P0A749); experiment: biochemical; conditions: (E) E. coli enzyme
# How it was run: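 Compound in DMSO/water pre-incubated 10 min at 37° C with enzyme in 50 mM Tris/HCl pH 8.0, 5 mM DTT, 20% glycerol. After Tris/BME and assay buffer were added, OD340 was read at start. Reaction ran 1 hr at 37° C, then stop solution was added with 30 min colour development.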
# [2] = target: E. coli Enopyruvyl-UPD-N-acetylglucosamine reductase, Mur B (Escherichia coli, UniProt P08373); experiment: biochemical; conditions: (E) E. coli enzyme; for IC50: read-out: MurB IC50 (converted)
# [3] = target: E. coli Uridine-diphosphate-N-acetvimuramoyl: L-alanine lipase, MurC (Escherichia coli, UniProt P17952); experiment: Inhibitory activity against MurC (E. coli); assay type: biochemical; conditions: (E) E. coli enzyme; for IC50: read-out: MurC IC50 (converted)
# [4] = target: E. coli Uridine-diphosphate-N-acetylmuramoyl-L-alanine: D-glutamate liease, MurD (Escherichia coli, UniProt P14900); experiment: biochemical; conditions: (E) E. coli enzyme
# How it was run: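 Final buffer 83 mM Tris/HCl pH 8.0, 50 mM MgCl2, 2 mM ATP. Compounds from 10 mg/mL DMSO stocks diluted to 100 μg/mL in 50 mM Tris/HCl pH 8.5 (working solution, not final assay level).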
# staphylococci = experiment: Minimum inhibitory concentration, microdilution broth method, staphylococci; assay type: cell-based; conditions: Staphylococcus aureus, Mueller-Hinton broth, 18-22 hours at 35° C.
# How it was run: (§1)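 MIC by microdilution, NCCLS M7-A5. Media: MH broth (staph, enterococci); MH + 5% lysed horse blood (strep). Strains incl. methicillin-, penicillin- and/or vancomycin-resistant clinical isolates.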
# enterococci = experiment: Minimum inhibitory concentration, microdilution broth method, enterococci; assay type: cell-based; conditions: Enterococcus faecalis, Mueller-Hinton broth, 18-22 hours at 35° C.
# How it was run: as §1
# Streptococci = experiment: Minimum inhibitory concentration, microdilution broth method, streptococci; assay type: cell-based; conditions: S. pneumo GC 1894; Mueller-Hinton broth with 5% horse blood, 18-22 hours at 35° C.
# How it was run: as §1
# [5] = target: T1, S. aureus Enopyruvyl-UPD-N-acetylglucosamine reductase, Mur B (Staphylococcus aureus, UniProt P61431); experiment: biochemical; conditions: (S) S. aureus enzyme; read-out: MurB IC50 (converted)
# T1 sequence (P61431 1-307): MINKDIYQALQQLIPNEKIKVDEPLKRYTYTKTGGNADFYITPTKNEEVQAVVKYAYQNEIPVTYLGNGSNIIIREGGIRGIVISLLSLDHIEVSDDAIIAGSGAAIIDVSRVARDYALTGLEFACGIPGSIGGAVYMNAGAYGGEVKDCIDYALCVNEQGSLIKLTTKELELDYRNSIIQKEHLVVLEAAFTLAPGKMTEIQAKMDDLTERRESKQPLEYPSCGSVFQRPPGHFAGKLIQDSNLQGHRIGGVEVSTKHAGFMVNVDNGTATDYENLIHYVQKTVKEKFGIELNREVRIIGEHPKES
# [6] = target: T2, S. aureus Uridine-diphosphate-N-acetylmuramoyl-L-alanine: D-glutamate liease, MurD (Staphylococcus aureus, UniProt Q2FZ92); experiment: biochemical; conditions: (S) S. aureus enzyme
# T2 sequence (Q2FZ92 1-449): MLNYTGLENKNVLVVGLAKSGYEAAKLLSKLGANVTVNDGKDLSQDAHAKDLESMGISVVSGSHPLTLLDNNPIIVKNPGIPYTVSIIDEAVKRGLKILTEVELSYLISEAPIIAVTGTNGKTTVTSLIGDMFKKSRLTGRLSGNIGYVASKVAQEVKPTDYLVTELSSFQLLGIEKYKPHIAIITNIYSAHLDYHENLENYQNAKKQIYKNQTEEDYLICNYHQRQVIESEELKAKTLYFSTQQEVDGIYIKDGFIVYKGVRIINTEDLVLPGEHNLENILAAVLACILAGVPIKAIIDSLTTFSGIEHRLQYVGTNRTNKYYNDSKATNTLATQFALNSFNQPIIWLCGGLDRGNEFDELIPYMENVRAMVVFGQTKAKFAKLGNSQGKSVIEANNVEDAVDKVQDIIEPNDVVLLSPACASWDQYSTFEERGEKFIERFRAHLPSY
# Procedure: S. aureus and E. coli Uridine-diphosphate-N-acetylmuramoyl-L-alanine: D-glutamate liease, MurD
# (§2) Preparation of Enzyme Solution:
# (§3) Preparation of Test Compound Solutions:
# (§4) All test solutions are prepared in DMSO as 10 mg/mL, then diluted with 50 mM Tris/HCl (pH 8.5) to 100 μg/mL.
# (§5) Preparation of Stop Solution:
# In this evaluation, the inhibitory activity of a test compound against MurD, the enzyme which catalyzes the fourth step of bacterial cell wall biosynthesis is determined.
# [7] = target: T3, S. aureus UDP-N-acetylglucosamine enolpyruvoyl transferase, MurA (Staphylococcus aureus, UniProt P84058); experiment: Inhibitory activity against MurA (S. aureus); assay type: biochemical; conditions: (S) S. aureus enzyme
# T3 sequence (P84058 1-421): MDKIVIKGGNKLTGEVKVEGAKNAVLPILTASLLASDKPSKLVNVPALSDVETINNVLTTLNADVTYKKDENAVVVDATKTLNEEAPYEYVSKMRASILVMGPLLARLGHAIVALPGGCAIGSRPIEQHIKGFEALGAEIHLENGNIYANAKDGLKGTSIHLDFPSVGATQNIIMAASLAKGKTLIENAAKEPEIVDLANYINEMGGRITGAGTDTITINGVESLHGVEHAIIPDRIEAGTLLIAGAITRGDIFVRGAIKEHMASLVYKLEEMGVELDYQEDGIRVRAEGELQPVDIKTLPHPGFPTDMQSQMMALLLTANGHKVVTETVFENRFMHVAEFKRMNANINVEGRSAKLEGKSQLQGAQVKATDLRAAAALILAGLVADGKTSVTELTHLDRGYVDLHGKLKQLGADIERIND
# Procedure: Evaluation of the Inhibitory Activity of Test Compounds Against Enzymes which Catalyze Bacterial Cell Wall Biosynthesis
# S. aureus and E. coli UDP-N-acetylglucosamine enolpyruvoyl transferase, MurA
# as §2
# The enzyme solution is prepared by admixing the following: 50 mM Tris/HCl pH 8.0, […] 1 M Tris, 5 mM DTT, […] 1 M DTT, 20% Glycerol 4 ml 50% Glycerol, add water to 10 ml.
# as §5
# The stop solution is prepared by mixing the following: 4.2% ammonium molybdate in 4N HCl, 8.4 g/200 ml 4N HCl, 0.045% malachite green, 90 mg/200 ml water, then stir 1 part ammonium molybdate with 2 parts malachite green for 30 min.
# A procedure similar to that described by C. T. Walsh in Biochemistry 33, 10646-10651, is used to evaluate the inhibitory activity of test compounds against MurA, the enzyme which catalyzes the first step of bacterial cell wall biosynthesis. Experiments are performed by adding a solution of test compound (in a mixture of dimethylsulfoxide and water) and an enzyme solution to a well. After a pre-incubation period of 10 mintues at 37° C., Tris/BME buffer and assay buffer are added. A start point optical density (OD0) reading is taken at 340 nm immediately following the addition of assay buffer. After incubation for 1 hr at 37° C., the stop solution is added and the color is allowed to develop for 30 minutes. An end point OD1 reading at […] is then taken. […]
# [8] = target: T4, S. aureus Uridine-diphosphate-N-acetvimuramoyl: L-alanine lipase, MurC (Staphylococcus aureus, UniProt Q2FXJ0); experiment: biochemical; conditions: (S) S. aureus enzyme; read-out: MurC IC50 (converted)
# T4 sequence (Q2FXJ0 1-437): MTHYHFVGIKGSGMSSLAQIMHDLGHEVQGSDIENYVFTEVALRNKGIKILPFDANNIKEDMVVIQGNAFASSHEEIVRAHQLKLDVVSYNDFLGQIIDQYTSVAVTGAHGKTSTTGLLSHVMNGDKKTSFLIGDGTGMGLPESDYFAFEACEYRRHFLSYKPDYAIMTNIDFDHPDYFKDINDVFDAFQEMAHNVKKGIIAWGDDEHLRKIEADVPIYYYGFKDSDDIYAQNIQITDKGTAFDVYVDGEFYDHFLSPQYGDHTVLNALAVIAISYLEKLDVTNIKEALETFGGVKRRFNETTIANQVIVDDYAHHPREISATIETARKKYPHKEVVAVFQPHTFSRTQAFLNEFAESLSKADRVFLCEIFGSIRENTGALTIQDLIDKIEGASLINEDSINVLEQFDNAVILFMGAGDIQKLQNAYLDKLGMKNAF
# Procedure: S. aureus and E. coli Uridine-diphosphate-N-acetvimuramoyl: L-alanine lipase, MurC
# as §2
# A 1 mg/mL stock solution of MurC is prepared in a buffer consisting of 20 mM Tris/HCl (pH 8.5) with 2.5 μM BME. The stock solution is further diluted with the buffer to give a final enzyme concentration of 100 μg/mL for the E. coli stock solution and 70 μg/mL for the S. aureus stock solution.
# as §3, §4, §5
# The stop solution is prepared by stirring 1 part 4.2% ammonium molydbate in 4N HCl with 2 parts 0.045% malachite green for 30 min.
# In this evaluation, the inhibitory activity of a test compound against MurC, the enzyme which catalyzes the third step of bacterial cell wall bioxynthesis is determined. Experiments are performed by adding 2.5 μl buffer, 2.5 μl 0.5M NH4SO2, 5 μl 2 μM L-Ala, 5 μl enzyme solution and 6.5 μl test compound solution to each well in a 96-well microplate. After a pre-incubation period of 10 mins. at 23° C., 3.75 μl of a 0.75 μM solution of UDP-MurNac is added to each well. Following an incubation period of 10 mins. at 37° C., 210 μl stop solution and 50 μl of a 34% w/v sodium citrate solution are added and color is allowed to develop for 10 mins. at 23° C. (Lanzetta et al., Analytical Biochemistry, 1979, 95) Optical density readings are taken at 660 nm using a Molecular Devices Spectra Max 250 with Soft Max software. Controls are performed using the same procedure and omitting the addition of UDP-MurNac. […]
# Using these values the IC50 is determined by linear regression analysis.
# [9] = S. aureus GC 1131, read-out: MIC S. aureus GC 1131
# [10] = S. aureus GC 4543, read-out: MIC S. aureus GC 4543
# [11] = E. faecalis GC 2242, read-out: MIC E. faecalis GC 2242
# [12] = E. faecalis GC 4555, read-out: MIC E. faecalis GC 4555
# Sequence of E. coli UDP-N-acetylglucosamine enolpyruvoyl transferase, MurA (P0A749 whole entry): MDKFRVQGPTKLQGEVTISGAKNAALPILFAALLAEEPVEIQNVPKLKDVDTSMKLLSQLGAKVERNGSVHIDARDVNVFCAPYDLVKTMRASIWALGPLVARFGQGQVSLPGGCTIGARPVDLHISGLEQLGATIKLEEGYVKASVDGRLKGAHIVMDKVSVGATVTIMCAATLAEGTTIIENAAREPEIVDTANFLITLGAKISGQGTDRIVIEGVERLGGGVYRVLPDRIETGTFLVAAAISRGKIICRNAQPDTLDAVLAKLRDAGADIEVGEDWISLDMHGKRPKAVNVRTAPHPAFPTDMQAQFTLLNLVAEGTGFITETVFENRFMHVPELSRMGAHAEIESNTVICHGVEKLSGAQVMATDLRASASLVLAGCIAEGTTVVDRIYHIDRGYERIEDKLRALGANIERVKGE
# Sequence of E. coli Enopyruvyl-UPD-N-acetylglucosamine reductase, Mur B (P08373 whole entry): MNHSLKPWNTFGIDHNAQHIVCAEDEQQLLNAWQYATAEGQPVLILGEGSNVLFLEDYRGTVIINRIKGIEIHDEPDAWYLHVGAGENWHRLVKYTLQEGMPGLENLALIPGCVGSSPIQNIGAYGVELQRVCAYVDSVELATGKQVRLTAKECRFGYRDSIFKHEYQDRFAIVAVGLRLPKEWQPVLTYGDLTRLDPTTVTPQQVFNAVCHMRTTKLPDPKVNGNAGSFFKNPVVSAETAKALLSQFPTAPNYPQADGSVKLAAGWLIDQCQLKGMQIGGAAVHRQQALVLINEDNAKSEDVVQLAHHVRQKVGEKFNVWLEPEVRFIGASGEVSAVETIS
# Sequence of E. coli Uridine-diphosphate-N-acetvimuramoyl: L-alanine lipase, MurC (P17952 whole entry): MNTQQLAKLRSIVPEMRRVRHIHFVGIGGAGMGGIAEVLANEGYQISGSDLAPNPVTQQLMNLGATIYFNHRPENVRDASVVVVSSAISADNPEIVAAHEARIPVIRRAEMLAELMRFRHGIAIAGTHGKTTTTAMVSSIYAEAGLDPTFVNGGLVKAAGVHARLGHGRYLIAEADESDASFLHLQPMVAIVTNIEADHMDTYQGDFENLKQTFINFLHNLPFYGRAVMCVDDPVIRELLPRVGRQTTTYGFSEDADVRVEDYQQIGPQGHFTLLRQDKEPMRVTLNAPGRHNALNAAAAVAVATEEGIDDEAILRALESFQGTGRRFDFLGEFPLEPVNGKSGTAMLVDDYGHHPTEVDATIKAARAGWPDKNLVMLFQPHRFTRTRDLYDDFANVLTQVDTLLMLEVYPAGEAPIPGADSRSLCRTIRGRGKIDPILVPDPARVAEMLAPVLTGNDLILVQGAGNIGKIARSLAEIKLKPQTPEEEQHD
# Sequence of E. coli Uridine-diphosphate-N-acetylmuramoyl-L-alanine: D-glutamate liease, MurD (P14900 whole entry): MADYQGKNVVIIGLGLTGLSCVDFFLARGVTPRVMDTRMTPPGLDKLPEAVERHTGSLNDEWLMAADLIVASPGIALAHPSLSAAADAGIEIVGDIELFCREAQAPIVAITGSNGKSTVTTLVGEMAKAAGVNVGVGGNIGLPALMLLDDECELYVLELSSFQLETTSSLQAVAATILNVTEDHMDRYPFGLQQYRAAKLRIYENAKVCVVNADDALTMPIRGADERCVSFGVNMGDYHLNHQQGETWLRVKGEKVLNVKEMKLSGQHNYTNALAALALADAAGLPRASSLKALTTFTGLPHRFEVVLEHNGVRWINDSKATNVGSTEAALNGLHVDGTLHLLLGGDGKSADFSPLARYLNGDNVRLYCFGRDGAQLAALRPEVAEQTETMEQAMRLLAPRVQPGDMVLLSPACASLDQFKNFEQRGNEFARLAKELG
SMILES,IC50 [1],IC50 [2],IC50 [3],IC50 [4],MIC (staphylococci; [9]),MIC (staphylococci; [10]),MIC (enterococci; [11]),MIC (enterococci; [12]),MIC (Streptococci),melting point,IC50 [5],IC50 [6],MurB IC50 [2],MurC IC50 [3],IC50 [7],IC50 [8]
O=C1O/C(=C\c2ccc(Cl)cc2)C(O)=C1c1cccc2ccccc12 [Example 46],> 71.7 µM,> 71.7 µM,45.9 µM,> 71.7 µM,64 µg/mL,32 µg/mL,64 µg/mL,32 µg/mL,16 µg/mL,235 to 237 °C,,,,,,
O=C1O/C(=C\c2cccc3ccccc23)C(O)=C1c1ccc2ccccc2c1 [Example 44],49.4 µM,19.2 µM,16.5 µM,> 68.6 µM,4 µg/mL,8 µg/mL,8 µg/mL,16 µg/mL,1 µg/mL,205 to 207 °C,,,,,,
O=C1O/C(=C\c2cccc(-c3ccc(Cl)c(Cl)c3)c2)C(O)=C1c1ccc(Cl)c(Cl)c1 [Example 135],4.18 µM,6.27 µM,12.5 µM,,32 µg/mL,1 µg/mL,4 µg/mL,4 µg/mL,1 µg/mL,,6.27 µM,12.5 µM,,,,
O=C1O/C(=C\c2cccc3ccccc23)C(O)=C1c1cccc(C(F)(F)F)c1 [Example 5],,,,,8 µg/mL,8 µg/mL,8 µg/mL,16 µg/mL,0.5 µg/mL,,15.7 µM,,8 µg/mL,6 (E) μg/mL,,
CC(=O)c1ccccc1-c1ccc(/C=C2\OC(=O)C(c3cc(Cl)cc(Cl)c3)=C2O)cc1C [Example 40],,,,,1 µg/mL,1 µg/mL,2 µg/mL,2 µg/mL,< 0.125 µg/mL,,,15 µM,,,30.1 µM,8.6 µM
